Data published in the NIST ThermoML archive (doi:10.1021/acs.jced.6b00526).

Test: xn = mol fraction of the nth substance listed
Conditions: 100 kPa, Liquid; for mass density: Vibrating tube method; for viscosity: Falling or rolling sphere viscometry

OCCO [1,2-ethanediol] + O
Conditions | mass density, 288.15 K [kg/m3] | mass density, 293.15 K [kg/m3] | mass density, 298.15 K [kg/m3] | mass density, 303.15 K [kg/m3] | mass density, 308.15 K [kg/m3] | mass density, 313.15 K [kg/m3] | mass density, 318.15 K [kg/m3] | viscosity, 293.15 K [mPa·s] | viscosity, 298.15 K [mPa·s] | viscosity, 303.15 K [mPa·s]
x2 = 0 | – | 1113.3 | – | 1106.8 | – | 1099.1 | – | 21.13 | 17.24 | 14.23
x2 = 0.1037 | 1114.7 | 1111.1 | 1108 | 1104.4 | 1100.5 | 1096.7 | 1093.8 | – | – | –
x2 = 0.1105 | – | – | – | – | – | – | – | 17.58 | 14.33 | 11.86
x2 = 0.1593 | 1113.6 | – | 1106.9 | – | 1099.3 | 1095.4 | 1092.4 | – | – | –
x2 = 0.2014 | – | – | – | – | – | – | – | 14.95 | 12.19 | 10.14
x2 = 0.2189 | 1111.9 | 1108.3 | 1105.2 | 1101.6 | 1097.6 | 1093.7 | 1090.7 | – | – | –
x2 = 0.2669 | – | 1106.8 | 1103.6 | 1100.1 | – | 1092.1 | – | – | – | –
x2 = 0.3002 | – | – | – | – | – | – | – | 12.4 | 10.18 | 8.45
x2 = 0.3165 | 1108.3 | 1104.8 | 1101.7 | 1098.2 | 1094.2 | 1090.3 | 1087.3 | – | – | –
x2 = 0.3496 | 1106.8 | – | 1100.3 | 1096.8 | 1092.9 | – | 1086 | – | – | –
x2 = 0.3994 | 1104.4 | 1101.1 | 1098 | 1094.4 | 1090.6 | 1086.9 | 1083.9 | – | – | –
x2 = 0.4011 | – | – | – | – | – | – | – | 10.05 | 8.31 | 6.968
x2 = 0.4449 | 1101.8 | 1098.5 | – | 1092.2 | 1088.4 | 1084.6 | 1081.6 | – | – | –
x2 = 0.4969 | – | – | – | – | – | – | – | 8.185 | 6.791 | 5.653
x2 = 0.5061 | 1098 | 1094.8 | 1091.8 | 1088.5 | 1084.7 | 1081.1 | 1078.1 | – | – | –
x2 = 0.5563 | 1094.5 | 1091.4 | 1088.4 | 1085.1 | 1081.3 | 1077.8 | 1074.6 | – | – | –
x2 = 0.6022 | – | – | – | – | – | – | – | 6.297 | 5.208 | 4.396
x2 = 0.6055 | 1090.6 | 1087.4 | 1084.5 | 1081.3 | 1077.6 | 1074 | 1071.1 | – | – | –
x2 = 0.6518 | 1085.7 | 1082.6 | 1079.7 | 1076.5 | 1072.9 | 1069.5 | 1066.3 | – | – | –
x2 = 0.6995 | – | – | – | – | – | – | – | 4.584 | 3.884 | 3.345
x2 = 0.7001 | 1079.8 | 1076.8 | 1073.7 | 1070.6 | 1067.3 | 1064 | 1060.7 | – | – | –
x2 = 0.7482 | 1072.6 | 1069.7 | 1066.7 | 1063.7 | 1060.6 | 1057.4 | 1054.3 | – | – | –
x2 = 0.7994 | – | – | – | – | – | – | – | 3.122 | 2.682 | 2.328
x2 = 0.8015 | 1063 | 1060.1 | 1057.4 | 1054.5 | 1051.5 | 1048.4 | 1045.6 | – | – | –
x2 = 0.8444 | 1052.6 | 1050.2 | 1048 | 1045.5 | 1042.6 | 1039.6 | 1037.1 | – | – | –
x2 = 0.8997 | – | – | – | – | – | – | – | 1.918 | 1.664 | 1.446
x2 = 0.901 | 1036.4 | 1034.6 | 1032.8 | 1030.7 | 1028 | 1025.4 | 1023.5 | – | – | –

OCCCCO [1,4-butanediol] + O
Conditions | mass density, 288.15 K [kg/m3] | mass density, 293.15 K [kg/m3] | mass density, 298.15 K [kg/m3] | mass density, 303.15 K [kg/m3] | mass density, 308.15 K [kg/m3] | mass density, 313.15 K [kg/m3] | mass density, 318.15 K [kg/m3] | viscosity, 293.15 K [mPa·s] | viscosity, 298.15 K [mPa·s] | viscosity, 303.15 K [mPa·s]
x2 = 0 | 1018.6 | 1016.3 | 1012.9 | 1009.9 | 1006.9 | 1003.2 | 1000.8 | 90.7 | 69.89 | 55.24
x2 = 0.0992 | 1020.8 | 1018.3 | 1014.8 | 1011.8 | 1008.9 | 1005.2 | 1002.6 | – | – | –
x2 = 0.1257 | – | – | – | – | – | – | – | 75.28 | 57.95 | 45.05
x2 = 0.152 | 1021.8 | 1019.3 | 1015.8 | 1012.8 | 1009.8 | 1006.1 | 1003.4 | – | – | –
x2 = 0.2039 | 1022.8 | 1020.3 | 1016.7 | 1013.7 | 1010.6 | 1006.9 | 1004.2 | – | – | –
x2 = 0.2513 | 1023.6 | 1021.1 | 1017.6 | 1014.5 | 1011.4 | 1007.6 | 1004.9 | – | – | –
x2 = 0.2783 | – | – | – | – | – | – | – | 58.11 | 44.52 | 33.59
x2 = 0.3003 | 1024.5 | 1021.9 | 1018.3 | 1015.2 | 1012.1 | 1008.3 | 1005.6 | – | – | –
x2 = 0.3033 | – | – | – | – | – | – | – | 54.65 | 42 | 31.63
x2 = 0.3534 | 1025.3 | 1022.7 | 1019.1 | 1015.9 | 1012.8 | 1009 | 1006.3 | – | – | –
x2 = 0.4009 | – | – | – | – | – | – | – | 44.04 | 33.94 | 25.07
x2 = 0.4399 | 1026.2 | 1023.6 | 1020 | 1016.8 | 1013.6 | 1009.8 | 1007.1 | – | – | –
x2 = 0.4482 | 1026.6 | 1024 | 1020.3 | 1017.1 | 1013.9 | 1010.1 | 1007.3 | – | – | –
x2 = 0.5008 | – | – | – | – | – | – | – | 33.85 | 25.34 | 18.65
x2 = 0.5011 | 1027.2 | 1024.5 | 1020.8 | 1017.7 | 1014.5 | 1010.6 | 1007.8 | – | – | –
x2 = 0.5515 | 1027.6 | 1025 | 1021.1 | 1017.9 | 1014.8 | 1010.9 | 1008.1 | – | – | –
x2 = 0.6114 | 1027.7 | 1025.1 | 1021.3 | 1018.2 | 1015.1 | 1011.2 | 1008.3 | – | – | –
x2 = 0.6527 | 1027.6 | 1025 | 1021.3 | 1018.1 | 1015.1 | 1011.2 | 1008.4 | – | – | –
x2 = 0.6662 | – | – | – | – | – | – | – | 19.58 | 13.9 | 10.11
x2 = 0.7003 | – | – | – | – | – | – | – | 16.6 | 11.57 | 8.774
x2 = 0.7005 | 1027.2 | 1024.5 | 1021 | 1017.8 | 1014.8 | 1011 | 1008.3 | – | – | –
x2 = 0.7501 | 1026.3 | 1023.6 | 1020.1 | 1016.9 | 1013.9 | 1010.3 | 1007.4 | – | – | –
x2 = 0.7998 | 1024.2 | 1021.5 | 1018.3 | 1015.3 | 1012.5 | 1008.9 | 1006.2 | – | – | –
x2 = 0.8013 | – | – | – | – | – | – | – | 9.634 | 6.814 | 5.035
x2 = 0.8492 | 1021.3 | 1018.9 | 1015.8 | 1012.9 | 1010.2 | 1007.1 | 1004 | – | – | –
x2 = 0.8979 | – | – | – | – | – | – | – | 4.127 | 3.267 | 2.369
x2 = 0.9001 | 1015.9 | 1014.1 | 1011.7 | 1009.2 | 1006.7 | 1003.6 | 1000.9 | – | – | –
x2 = 0.9488 | 1008.1 | 1006.7 | 1004.7 | 1003.3 | 1001.1 | 998.7 | 996.2 | – | – | –
